Assay results as given in paper PMC3983396 (Journal of medicinal chemistry, 2014).
Blank lines part the entries; values can stand above or below the compound they belong to.

Key:
[1] = Water solubility of salts; type: physicochemical; conditions: compared to the salts of monocyclic amines (7m and 7s)
[2] = tested on: MCF-7 and MDA-MB-231 cells; assay: Flow cytometry after prolonged treatment; type: cell-based, human; conditions: greater than 48 h
[3] = tested on: AKT phosphorylation in MDA-MB-231 cells; assay: AKT phosphorylation; type: cell-based, human; conditions: MDA-MB-231, increasing concentrations, 24 h
[4] = tested on: MDA-MB-231 tumor xenograft; assay: Orthotopic nude mouse assay; type: in vivo
human tumor cell lines = assay: Growth arrest of a panel of human tumor cell lines; type: cell-based; conditions: read-out: GI50 values, growth arrest of most tumor cell lines
tumor cells = assay: Induction of apoptosis of tumor cells; type: cell-based
CDKs 1, 2, 5, 8 and 9 = assay: In vitro kinase assay, other CDKs; type: biochemical; conditions: data not shown
[5] = tested on: PARP cleavage in MCF-7 and MDA-MB-231 cells; assay: PARP cleavage, Western blot; type: cell-based, human; conditions: 24 h, 1 μM
CD-1 female mice = conditions: CD-1, mouse, in vivo
CDK6 = conditions: read-out: IC50 CDK6; cited from earlier work
CDK4 = conditions: read-out: IC50 CDK4; cited from earlier work

- water solubility of salts [1]: enhanced water solubility
SMILES: N#Cc1cc2cnc(Nc3ccc(N4CCOCC4)cc3)nc2n(C2CCCC2)c1=O [7t, 8-Cyclopentyl-2-(4-morpholin-4-yl-phenylamino)-7-oxo-7,8-dihydro-pyrido[2,3-d]pyrimidine-6-carbonitrile]

- water solubility of salts [1]: enhanced water solubility
SMILES: N#Cc1cc2cnc(Nc3ccc(N4CCOCC4)cn3)nc2n(C2CCCC2)c1=O [7u, 8-Cyclopentyl-2-(5-morpholin-4-yl-pyridin-2-ylamino)-7-oxo-7,8-dihydro-pyrido[2,3-d] pyrimidine-6-carbonitrile]

- water solubility of salts [1]: enhanced water solubility
SMILES: CN1CCN(c2ccc(Nc3ncc4cc(C#N)c(=O)n(C5CCCC5)c4n3)nc2)CC1 [7v, 8-Cyclopentyl-2-[5-(4-methyl-piperazin-1-yl)-pyridin-2-ylamino]-7-oxo-7,8-dihydro-pyrido[2,3-d]pyrimidine-6-carbonitrile]

- water solubility of salts [1]: enhanced water solubility
SMILES: N#Cc1cc2cnc(N3CCN(c4ccc(C(F)(F)F)cn4)CC3)nc2n(C2CCCC2)c1=O [7w, 8-Cyclopentyl-7-oxo-2-[4-(5-trifluoromethyl-pyridin-2-yl)-piperazin-1-yl]-7,8-dihydro-pyrido[2,3-d]pyrimidine-6-carbonitrile]

SMILES: CN1CCN(c2ccc(Nc3ncc4cc(C#N)c(=O)n(C5CCCC5)c4n3)cc2)CC1 [7x, 8-Cyclopentyl-2-[4-(4-methyl-piperazin-1-yl)-phenylamino]-7-oxo-7,8-dihydro-pyrido[2,3-d]pyrimidine-6-carbonitrile]
- sub-G1 population (apoptosis) [2]: appearance of a sub-G1 population
- phosphorylation of AKT (Ser473) [3]: inhibits the phosphorylation of AKT
- tumor growth ([4]; 50 mg/kg Q2D IP, 21 day period): dose-dependent inhibition of tumor growth
- signs of toxicity in treated groups ([4]; 50 mg/kg Q2D IP, body weights): No overt signs of toxicity
- tumor weight at the end-point of the study ([4]; data not shown): decrease in tumor weight
- GI50 (human tumor cell lines): 25 to 2000 nM
- concentration inducing apoptosis of tumor cells (tumor cells): 30 to 100 nM
- inhibitory activity against CDKs 1, 2, 5, 8 and 9 (CDKs 1, 2, 5, 8 and 9): little inhibitory activity
- PARP cleavage (~89 kDa cleaved polypeptide) [5]: dose-dependent accumulation of the ~89 kDa cleaved PARP polypeptide
- mice surviving more than 10 days after injection (CD-1 female mice): 100%

SMILES: CC(=O)c1c(C)c2cnc(Nc3ccc(N4CCNCC4)cn3)nc2n(C2CCCC2)c1=O [PD-0332991, Palbociclib, reference compound]
- sub-G1 population (apoptosis) [2]: absent
- IC50 (CDK6): 15 nM
- PARP cleavage (~89 kDa cleaved polypeptide) [5]: not observed
